Measurements taken from the NIST ThermoML archive (doi:10.1016/j.tca.2015.08.023).
Numbers after ± are expanded uncertainties.

Legend:
[1] = 101.33 kPa, Liquid, Vibrating tube method
[2] = refractive index (Na D-line) (dimensionless); conditions: 101.33 kPa, Liquid, Standard Abbe refractometry

mass density ([1]; 298.15 K) [kg/m3]	mass density ([1]; 308.15 K) [kg/m3]	mass density ([1]; 318.15 K) [kg/m3]	refractive index ([2]; 298.15 K)	refractive index ([2]; 308.15 K)	refractive index ([2]; 318.15 K)	SMILES
862.7 ± 2	853.8 ± 2	844.8 ± 2	1.4928 ± 0.0005	1.4879 ± 0.0005	1.4832 ± 0.0005	CCc1ccccc1 [ethylbenzene]
698.6 ± 2	690.5 ± 2	682.2 ± 2	1.3948 ± 0.0005	1.3904 ± 0.0005	1.3868 ± 0.0005	CCCCCCCC [octane]
857.9 ± 2.1	849.4 ± 2.1	840.9 ± 2.1	1.4892 ± 0.0006	1.4844 ± 0.0006	1.48 ± 0.0006	CCCc1ccccc1 [propylbenzene]
